In ChEMBL document CHEMBL1149532, “Identification of 2-(4,5,6,7-tetrahydro-1H-pyrrolo[3,2-c]pyridin-3-yl)-ethylamine derivatives as novel GnRH receptor antagonists” (Bioorg Med Chem Lett, 2007):
Activity calls are given as the source filed them. No cut-off for these calls is given here.

Legend:
[1] = biological target: T1, Gonadotropin-releasing hormone receptor (Rattus norvegicus, UniProt P30969); assay: Displacement of [125I]-Tyr5, DLeu6, NMeLeu7, Pro-N-Et-GnRH from cloned rat GnRHR
T1 sequence (P30969 whole entry): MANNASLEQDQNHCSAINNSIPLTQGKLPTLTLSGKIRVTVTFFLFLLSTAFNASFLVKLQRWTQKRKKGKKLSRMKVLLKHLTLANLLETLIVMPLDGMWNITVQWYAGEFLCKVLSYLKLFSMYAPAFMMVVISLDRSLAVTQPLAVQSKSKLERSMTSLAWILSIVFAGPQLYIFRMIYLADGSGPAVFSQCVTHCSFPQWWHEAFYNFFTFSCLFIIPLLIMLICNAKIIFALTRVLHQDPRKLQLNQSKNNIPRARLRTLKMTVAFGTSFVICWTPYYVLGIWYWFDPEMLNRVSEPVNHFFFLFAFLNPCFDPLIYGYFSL

[2] = biological target: T2, Gonadotropin-releasing hormone receptor (Homo sapiens, UniProt P30968); assay: Inhibition of human GnRHR expressed in RBL cells assessed as inhibition of GnRH-stimulated [3H]inositol phosphate hydrolysis; format: functional, cell-based
T2 sequence (P30968 whole entry): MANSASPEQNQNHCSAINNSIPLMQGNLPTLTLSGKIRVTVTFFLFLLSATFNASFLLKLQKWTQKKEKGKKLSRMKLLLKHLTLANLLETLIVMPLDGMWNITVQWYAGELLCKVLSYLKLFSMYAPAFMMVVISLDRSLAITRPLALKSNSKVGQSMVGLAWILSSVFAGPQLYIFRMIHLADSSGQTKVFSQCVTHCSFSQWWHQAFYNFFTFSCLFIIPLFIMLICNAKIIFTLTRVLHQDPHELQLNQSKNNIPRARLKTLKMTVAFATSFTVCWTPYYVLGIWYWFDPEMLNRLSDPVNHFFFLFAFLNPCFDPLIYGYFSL

[3] = biological target: T1, Gonadotropin-releasing hormone receptor; assay: Inhibition of GnRHR in rat pituitary cells assessed as inhibition of GnRH-stimulated LH release; format: functional, cell-based, Pituitary gland cell
[4] = AUC in rat at 1.5 mg/kg, ip after 24 hrs; format: ADME, organism-based; design: time < 24 hr, dose 1.5 mg/kg, route intraperitoneal; settings: plasma
[5] = biological target: T3, Gonadotropin-releasing hormone receptor (Rattus norvegicus) (UniProt P30969); assay: Decrease in LH concentration in rat plasma at 1.5 mg/kg, ip after 24 hrs by radioimmunoassay; format: functional, organism-based; design: dose 1.5 mg/kg
T3 sequence (whole entry): T1 sequence (P30969 whole entry)

[6] = AUC in rat at 15 mg/kg, ip after 24 hrs; format: ADME, organism-based; design: time < 24 hr, dose 15 mg/kg, route intraperitoneal; settings: plasma
[7] = biological target: T3, Gonadotropin-releasing hormone receptor (Rattus norvegicus); assay: Decrease in LH concentration in rat plasma at 15 mg/kg, ip after 24 hrs by radioimmunoassay; format: functional, organism-based; design: dose 15 mg/kg
[8] = AUC in rat at 4.5 mg/kg, ip after 24 hrs; format: ADME, organism-based; design: time < 24 hr, dose 4.5 mg/kg, route intraperitoneal; settings: plasma

SMILES | Ki [1] | IC50 [2] | IC50 [3] | other results
Cc1cc(C)cc(-c2[nH]c3c(c2[C@H](C)CN)CN(C(=O)Cc2c(F)cccc2C(F)(F)F)CC3)c1 | 470 nM | 4180 nM | – | –
Cc1cc(C)cc(-c2[nH]c3c(c2[C@H](C)CNCCC2CCOCC2)CN(C(=O)Cc2c(F)cccc2C(F)(F)F)CC3)c1 | 4.7 nM | 205 nM | 480 nM | –
Cc1cc(C)cc(-c2[nH]c3c(c2[C@H](C)CNCCc2ccc(C(=O)O)cc2)CN(C(=O)Cc2c(F)cccc2C(F)(F)F)CC3)c1 | 2 nM | 22 nM | – | –
Cc1cc(C)cc(-c2[nH]c3c(c2[C@H](C)CNCCc2ccncc2)CN(C(=O)c2ccccc2)CC3)c1 | 660 nM | > 10000 nM | – | –
Cc1cc(C)cc(-c2[nH]c3c(c2[C@H](C)CNCCc2ccc4nccnc4c2)CN(C(=O)Cc2c(F)cccc2C(F)(F)F)CC3)c1 | 0.3 nM | 60 nM | 68 nM | –
Cc1cc(C)cc(-c2[nH]c3c(c2[C@H](C)CNCc2ccc(-c4nnn[nH]4)cc2)CN(C(=O)Cc2c(F)cccc2C(F)(F)F)CC3)c1 | 1600 nM | 1600 nM | – | –
Cc1cc(C)cc(-c2[nH]c3c(c2[C@H](C)CNCCc2ccc4nc(C)[nH]c4c2)CN(C(=O)Cc2c(F)cccc2C(F)(F)F)CC3)c1 | 1 nM | 87 nM | – | –
Cc1cc(C)cc(-c2[nH]c3c(c2[C@H](C)CNCCc2cnc4nn[nH]c4c2)CN(C(=O)Cc2c(F)cccc2C(F)(F)F)CC3)c1 | 0.6 nM | 9 nM | 6.4 nM | –
Cc1cc(C)cc(-c2[nH]c3c(c2[C@H](C)CNCCc2ccncc2)CN(C(=O)C2CCCC2)CC3)c1 | 18 nM | 3480 nM | 250 nM | –
Cc1cc(C)cc(-c2[nH]c3c(c2[C@H](C)CNCCc2ccncc2)CNCC3)c1 | > 10000 nM | > 10000 nM | – | –
COc1ccccc1CC(=O)N1CCc2[nH]c(-c3cc(C)cc(C)c3)c([C@H](C)CNCCc3ccncc3)c2C1 | 5.6 nM | 462 nM | – | –
Cc1cc(C)cc(-c2[nH]c3c(c2[C@H](C)CNCCc2ccc(-c4nnn[nH]4)cc2)CN(C(=O)Cc2c(F)cccc2C(F)(F)F)CC3)c1 | 0.2 nM | 1.5 nM | 0.6 nM | AUC at 24 h [4]: 1290 ng·h/mL; Activity [5]: Dose-dependent effect; AUC at 24 h [6]: 6500 ng·h/mL; Activity [7]: Active; AUC at 24 h [8]: 2470 ng·h/mL
Cc1cc(C)cc(-c2[nH]c3c(c2[C@H](C)CNCCc2ccncc2)CN(C(=O)Cc2c(F)cccc2C(F)(F)F)CC3)c1 | 0.5 nM | 62 nM | 57 nM | –
Cc1cc(C)cc(-c2[nH]c3c(c2[C@H](C)CNCCc2ccncc2)CN(C(=O)C24CC5CC(CC(C5)C2)C4)CC3)c1 | 1.5 nM | 546 nM | 63 nM | –
Cc1cc(C)cc(-c2[nH]c3c(c2[C@H](C)CNCCc2cc4[nH]nnc4cc2F)CN(C(=O)Cc2c(F)cccc2C(F)(F)F)CC3)c1 | 0.7 nM | 16 nM | 28 nM | –
Cc1cc(C)cc(-c2[nH]c3c(c2[C@H](C)CNCCc2ccc(=O)n(C)c2)CN(C(=O)Cc2c(F)cccc2C(F)(F)F)CC3)c1 | 0.4 nM | 32 nM | – | –
Cc1cc(C)cc(-c2[nH]c3c(c2[C@H](C)CNCCc2ccncc2)CN(C(=O)Cc2ccccc2C(F)(F)F)CC3)c1 | 1.5 nM | 86 nM | 47 nM | –
CC(=O)N1CCc2[nH]c(-c3cc(C)cc(C)c3)c([C@H](C)CNCCc3ccncc3)c2C1 | 120 nM | 8090 nM | – | –
Cc1cc(C)cc(-c2[nH]c3c(c2[C@H](C)CNCCc2ccncc2)CN(C(=O)Cc2ccccc2F)CC3)c1 | 1.8 nM | 271 nM | 280 nM | –
Cc1cc(C)cc(-c2[nH]c3c(c2[C@H](C)CNCCc2ccncc2)CN(C(=O)Cc2ccccc2)CC3)c1 | 4.5 nM | 1110 nM | 110 nM | –
CCn1c(=O)[nH]c2cc(CCNC[C@@H](C)c3c(-c4cc(C)cc(C)c4)[nH]c4c3CN(C(=O)Cc3c(F)cccc3C(F)(F)F)CC4)ccc2c1=O | 1.8 nM | 91 nM | – | –
Cc1cc(C)cc(-c2[nH]c3c(c2[C@H](C)CNCCc2ccncc2)CN(C(=O)Cc2ccccc2Cl)CC3)c1 | 2.6 nM | 267 nM | – | –
Cc1cc(C)cc(-c2[nH]c3c(c2[C@H](C)CNCCOc2ccc(-c4nnn[nH]4)cc2)CN(C(=O)Cc2c(F)cccc2C(F)(F)F)CC3)c1 | 6.2 nM | 63 nM | – | –
Cc1cc(C)cc(-c2[nH]c3c(c2[C@H](C)CNCCc2ccncc2)CN(C(=O)C2C(C)(C)C2(C)C)CC3)c1 | 1.3 nM | 475 nM | 96 nM | –
Cc1cc(C)cc(-c2[nH]c3c(c2[C@H](C)CNCCc2ccc4nn[nH]c4c2)CN(C(=O)Cc2c(F)cccc2C(F)(F)F)CC3)c1 | 0.5 nM | 26 nM | 1.2 nM | –
Cc1cc(C)cc(-c2[nH]c3c(c2[C@H](C)CNCCc2ccc(-c4nnn[nH]4)nc2)CN(C(=O)Cc2c(F)cccc2C(F)(F)F)CC3)c1 | 0.6 nM | 7 nM | 44 nM | –
